{
  "source": "patent CN109329202A",
  "about": "“一种有效抑制n-羟乙酰神经氨酸合成的方法” (Guizhou University, priority 2018, dated 2019)",
  "system": "Neu5Gc synthesis [Neu5Gc的合成]",
  "assay": "Neu5Gc degradation in rat muscle, liver and kidney after 30 d oral gavage (HPLC after DMB derivatisation)",
  "format": "in vivo",
  "details": "male SD rats, oral gavage 200 mg/(kg.d) in 0.5% sodium carboxymethylcellulose, vs blank control (HPLC peak area)",
  "data": [
    {"smiles": "O=c1c(O)c(-c2ccc(O)cc2)oc2cc(O)cc(O)c12", "note": "[山奈酚]", "values": [
      {"measurement": "Neu5Gc degradation rate, kidney sample", "setting": "kidney", "value": 17.55, "unit": "%"},
      {"measurement": "Neu5Gc degradation rate, liver sample", "setting": "liver", "value": 6.315, "unit": "%"},
      {"measurement": "Neu5Gc degradation rate, meat sample", "setting": "thigh muscle", "value": 13.356, "unit": "%"}
    ]}
  ]
}
